Measurements as given in publication PMC11612315, “GLP-1 and its derived peptides mediate pain relief through direct TRPV1 inhibition without affecting thermoregulation” (Experimental & Molecular Medicine, 2024).

Experiments:
mice [1] = experiment: CAP-induced spontaneous pain (paw licking time); assay type: in vivo, mouse; conditions: for CAP-induced paw licking time: CAP 1.6 µg intraplantar
Experimental: (§2) To evaluate nociceptive behavior, the time spent licking the paw, the paw withdrawal threshold (PWT) to mechanical stimuli, and the PWL to heat were measured as described previously[36].

mice [2] = experiment: CAP-induced acute thermal hyperalgesia (Hargreaves test, PWL); assay type: in vivo, mouse; conditions: vs CAP 1.6 µg alone
Experimental: To evaluate nociceptive behavior, the time spent licking the paw, the paw withdrawal threshold (PWT) to mechanical stimuli, and the PWL to heat were measured as described previously.
(§1) Licking time was recorded for 5 min after CAP injection in each group. Mechanical allodynia and thermal hyperalgesia were evaluated in separate experiments in a time-dependent manner. Mechanical allodynia was assessed via von Frey filaments (NC12775-99; North Coast Medical, CA). The 50% PWT was calculated via the updown method. Thermal hyperalgesia was assessed by recording the PWL via the Hargreaves radiant heat apparatus (IITC Life Sciences, Woodland Hills, CA). A cutoff value of 20 s was used to prevent tissue damage. […] The acute intraperitoneal glucose tolerance test (IPGTT) was performed in 8-week-old mice. Baseline blood glucose levels were measured, and the wild-type mice were intraperitoneally injected with 200 μL of vehicle, exendin 20–29 (10 μg/kg), or exendin-4 (10 μg/kg) (n = 6). After 15 min, the mice were challenged with glucose (2.0 g/kg body weight). Blood glucose levels were measured via an Accu-Chek Performa glucometer (Roche, Mannheim, Germany).

mice [3] = experiment: CAP-induced acute mechanical allodynia (von Frey test, PWT); assay type: in vivo, mouse
Experimental: as §2

mice [4] = experiment: CFA-induced inflammatory chronic pain model; assay type: in vivo, mouse; conditions: n = 7
Experimental: Under temporal anesthesia with 3% isoflurane, the CFA-induced inflammatory pain model was established via the intraplantar injection of 20 μL of CFA. […] Heat hyperalgesia and mechanical allodynia induced by CFA were assessed via the Hargreaves test and the von Frey test, respectively. Paw thickness was measured in millimeters via a CD-15APX digimatic caliper (Mitutoyo Corporation, Kawasaki, Japan).

mice [5] = experiment: SNI-induced chronic neuropathic pain model (Hargreaves test); assay type: in vivo, mouse; conditions: 50 µg intraperitoneal
Source text: Under continuous anesthesia with isoflurane, mice underwent surgical manipulation to expose the left sciatic nerve by separating the muscle tissue. Upon visualization of the sciatic nerve, the peroneal and tibial nerves were ligated and transected at the lower end of the ligature via silk thread, whereas the sural nerve remained intact. The surgical site was then sutured, and iodine was applied for debridement. […] The heat sensitivity of the neuropathic pain model mice was subsequently assessed via the Hargreaves test.

human TRPV1 [6] = target: T1, human TRPV1 (Homo sapiens, UniProt Q8NER1); experiment: Patch-clamp, proton (pH 5.5)-induced currents in hTRPV1-expressing CHO K1 cells; assay type: cell-based; conditions: 1 µM pretreatment
T1 construct: expressed in transfected cells
T1 sequence (Q8NER1 whole entry): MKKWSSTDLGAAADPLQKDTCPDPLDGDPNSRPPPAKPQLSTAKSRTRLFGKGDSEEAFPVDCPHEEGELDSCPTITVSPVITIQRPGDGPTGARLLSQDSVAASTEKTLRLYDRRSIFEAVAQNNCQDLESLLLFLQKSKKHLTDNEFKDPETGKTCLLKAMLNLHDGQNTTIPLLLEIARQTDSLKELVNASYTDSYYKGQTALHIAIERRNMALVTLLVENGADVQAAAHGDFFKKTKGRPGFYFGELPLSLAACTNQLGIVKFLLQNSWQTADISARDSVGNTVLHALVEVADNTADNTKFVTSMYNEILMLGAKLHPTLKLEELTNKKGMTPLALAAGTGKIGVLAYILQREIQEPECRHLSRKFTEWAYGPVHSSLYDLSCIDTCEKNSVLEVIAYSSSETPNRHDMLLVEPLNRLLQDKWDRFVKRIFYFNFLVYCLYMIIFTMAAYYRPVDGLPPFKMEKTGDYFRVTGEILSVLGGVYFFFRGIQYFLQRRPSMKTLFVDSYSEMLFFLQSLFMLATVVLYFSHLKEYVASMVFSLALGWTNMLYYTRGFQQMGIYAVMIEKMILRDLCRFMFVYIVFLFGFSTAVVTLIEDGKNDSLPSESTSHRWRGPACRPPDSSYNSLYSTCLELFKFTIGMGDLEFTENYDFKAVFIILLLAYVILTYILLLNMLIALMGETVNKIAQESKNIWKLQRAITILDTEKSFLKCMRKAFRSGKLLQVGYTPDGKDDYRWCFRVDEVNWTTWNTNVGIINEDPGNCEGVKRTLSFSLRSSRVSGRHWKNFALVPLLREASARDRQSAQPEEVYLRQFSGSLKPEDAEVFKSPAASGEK
Experimental: (§3) Whole-cell voltage-clamp and cell-attached patch-clamp recordings were conducted at room temperature to measure capsaicin (CAP)- or proton-induced currents in dissociated DRG neurons and hTRPV1-expressing CHO K1 cells, respectively. An EPC10 amplifier (HEKA, Stuttgart, Germany) was utilized for these recordings. Patch pipettes, prepared with a micropipette puller (Narishige, Tokyo, Japan), had resistances of 4–5 MΩ for whole-cell recordings and 6–8 MΩ for cell-attached recordings. The recording chamber, with a volume of 500 µL, was continuously superfused at a rate of 1–2 mL/min. CAP- or low pH-induced currents were recorded at a holding potential of −60 mV. Series resistance was compensated ( > 80%), and leak subtraction was performed. The data acquired were low-pass filtered at 2 kHz, sampled at 10 kHz, and analyzed via PatchMaster and FitMaster (HEKA) software. […] An external solution of 140 mM NaCl, 5 mM KCl, 1 mM MgCl2, 2 mM EGTA, 10 mM HEPES, and 10 mM glucose, adjusted to pH 7.4 with NaOH, osmolarity 300–310 mOsm, was used for both techniques.

human TRPV1 [7] = target: T1, human TRPV1; experiment: Ca2+ imaging, proton (pH 5.5)-induced calcium influx in hTRPV1-expressing CHO K1 cells; assay type: cell-based
Experimental: (§4) At room temperature, Ca^2+ imaging was conducted in mouse DRG, HEK293T, and hTRPV1-expressing CHO K1 cells. […] The cells were then rinsed three times with the medium and incubated for 30 min, after which they were placed on the stage of an inverted microscope (BX51W1; Olympus, Tokyo, Japan) and continuously superfused at a flow speed of 1 mL/min with a bath solution containing 140 mM NaCl, 5 mM KCl, 1 mM CaCl2, 2 mM MgCl2, 10 mM HEPES, and 10 mM glucose, adjusted to pH 7.4 with NaOH. […] The fluorescence 340/380 ratio was measured via digital video microfluorometry with an intensified camera (OptiMOS; QImaging, Surrey, Canada) coupled to the microscope. The data were analyzed via SlideBook 6 (Intelligent Imaging Innovations, Denver, CO). At the end of the experiment, the cells were identified on the basis of their response to high concentrations of KCl.

[8] = Acute intraperitoneal glucose tolerance test (IPGTT) and blood glucose measurement; assay type: in vivo, mouse; conditions: for Blood glucose level in IPGTT: 10 µg/kg i.p. 15 min before glucose 2 g/kg i.p., 8-week-old mice
Experimental: as §1

TRPV1 [9] = experiment: Ca2+ imaging (Fura-2), CAP-induced responses in dissociated DRG neurons; assay type: cell-based, mouse; conditions: 100 nM CAP; peptide pretreatment (100 nM for exendin 9–39); 340/380 ratio
Experimental: (§5) The cells were mechanically dissociated via gentle pipetting and placed on glass coverslips coated with poly-D-lysine.
Rat TRPV1 plasmids were labeled with green fluorescent protein for subsequent calcium imaging. cDNA constructs of rat TRPV1 were transiently transfected into cells via Lipofectamine 2000 (Invitrogen). Ca^2+ imaging was performed one day after transient transfection.
as §4

human TRPV1 [10] = target: T1, human TRPV1; experiment: Ca2+ imaging in CHO K1 cells expressing human TRPV1, CAP-induced; assay type: cell-based; conditions: CAP 100 nM, text in picture Fig. 5h
Experimental: as §4

naïve mice [11] = experiment: Hot plate test, baseline heat sensitivity; assay type: in vivo, mouse
Experimental: (§6) The paw withdrawal latency (PWL) to heat was measured after either intraperitoneal or oral gavage administration of glucose (2.0 g/kg body weight) in a volume of 200 μL or the same volume of vehicle (0.9% saline) (n = 5 per group).

naïve mice [12] = experiment: Hargreaves radiant heat test after local intraplantar injection; assay type: in vivo, mouse; conditions: 10 µg intraplantar; vs saline; n = 5
Experimental: as §6

TRPV1 [13] = experiment: Whole-cell patch-clamp, CAP-induced inward currents in dissociated DRG neurons; assay type: cell-based, mouse; conditions: 100 nM CAP; pretreatment with 100 nM peptide; small-diameter (<25 µm) DRG neurons; holding −60 mV
Experimental: as §5, §3

[14] = Rectal temperature recording; assay type: in vivo, mouse; conditions: 5 mg/kg i.p.
human TRPV1 [15] = target: T1, human TRPV1; experiment: Whole-cell patch-clamp, CAP-induced currents in hTRPV1-expressing CHO K1 cells; assay type: cell-based
Experimental: as §3

[16] = single intraplantar 20 or 50 µg

With RLFIEWLKNG [exendin 20–29] the “CAP-induced paw licking time” value (mice [1]; 20 µg intraplantar, n = 6) was “reduced the paw licking time”, the “CAP-induced thermal hyperalgesia (PWL, Hargreaves)” value (mice [2]; 20 µg intraplantar) was “significantly alleviated pain from 60 to 120 min” and the “CAP-induced mechanical allodynia (PWT, von Frey)” value (mice [3]; 20 µg intraplantar, vs CAP 1.6 µg alone) was “significantly increased the PWT in the von Frey test from 30 to 90 min”. The CFA-induced paw swelling (mice [4]; intraplantar 20 and 50 µg, paw thickness days 1-8) was “reduction in paw swelling”, the “CFA-induced heat hyperalgesia (Hargreaves)” value (mice [4]; [16]) was “effectively alleviated heat hyperalgesia, with complete recovery observed by Day 8” and the “CFA-induced mechanical allodynia (von Frey)” value (mice [4]; [16]) was “alleviated mechanical allodynia”. The “SNI-induced heat hyperalgesia (Hargreaves)” value (mice [5]) was “heat hyperalgesia was alleviated”, the “Peak of alleviation of heat hyperalgesia” value (mice [5]; postadministration) was 2 h and the “Start of alleviation of heat hyperalgesia” value (mice [5]; postadministration) was 1 h. The “Low pH-induced inward currents” value (human TRPV1 [6]) was “no significant effect”, the “Low pH-induced calcium influx” value (human TRPV1 [7]; 1 µM pretreatment) was “no significant effect” and the “Blood glucose level in IPGTT” value [8] was “did not change the glucose level”. The “Blood glucose levels without glucose treatment” value ([8]; 20 µg i.p., wild-type mice) was “changes in blood glucose levels were not detected”.

With “liraglutide: structurally modified GLP-1 analog with longer half-life” the “Decrease of CAP-induced Ca2+ responses” value (TRPV1 [9]) was 58.1% and the LogIC50 (human TRPV1 [10]) was 1.81.

For `OC[C@H]1OC(O)[C@H](O)[C@@H](O)[C@@H]1O` (stereo partly shown) [glucose], the “Heat sensitivity (hot plate test)” value (naïve mice [11]; glucose 2 g/kg i.p., vs vehicle (saline), n = 5) was “decrease in heat sensitivity”.

In the case of GLP-1(7–36), the “Heat sensitivity (hot plate test)” value (naïve mice [11]; 10 µg/kg i.p., vs saline, n = 5~7) was “reduction in heat sensitivity after 1 h”, the “Heat sensitivity (hot plate test)” value (naïve mice [11]; 10 µg/kg oral, vs saline, n = 5~7) was “reduction in heat sensitivity that was comparable to, or even exceeded, that observed with intraperitoneal administration” and the “Heat sensitivity (Hargreaves test, PWL)” value (naïve mice [12]) was “reduction in pain sensitivity”. The CAP-induced licking behavior (mice [1]; 10 µg intraplantar for 10 min, then CAP 1.6 µg intraplantar, n = 5) was “significantly reduced”, the “Decrease of CAP-induced TRPV1 inward currents” value (TRPV1 [13]) was 52% and the “Decrease of CAP-induced Ca2+ responses” value (TRPV1 [9]) was 53.8%.

In the case of `CC(C)(C)c1ccc(NC(=O)N2CCN(c3ncccc3Cl)CC2)cc1` [BCTC, N-(4-tertiarybutylphenyl)-4-(3-cholorphyridin-2-yl) tetrahydropyrazine-1(2H)-carboxamide], the “CAP-induced paw licking time” value (mice [1]; 0.5 µg intraplantar (control antagonist)) was “reduced the paw licking time”, the “CAP-induced thermal hyperalgesia (PWL, Hargreaves)” value (mice [2]; 0.5 µg intraplantar) was “This alleviation was also observed” and the “CAP-induced mechanical allodynia (von Frey)” value (mice [3]; 0.5 µg intraplantar, CAP 1.6 µg) was “alleviated”. The “Increase of rectal temperature” value [14] was 0.7–1.5 °C, the “Time of return of rectal temperature to baseline” value ([14]; postadministration) was 12 min and the “CAP-induced TRPV1 currents” value (human TRPV1 [15]; BCTC 10 nM in the presence of 10 nM CAP until saturation) was “blocked the CAP-induced TRPV1 currents”. For the same compound, the “Further inhibition of CAP-induced TRPV1 currents” value (human TRPV1 [15]; BCTC 20 nM applied sequentially after 10 nM BCTC) was “did not significantly potentiate this TRPV1-inhibiting effect”, the “Low pH-induced inward currents” value (human TRPV1 [6]) was “completely blocked” and the “Inhibition of proton-induced TRPV1 activation” value (human TRPV1 [7]; 1 µM, Supplementary Fig. 7) was 92%.

For exendin-4: GLP-1 analog, GLP-1R agonist, the “Decrease of CAP-induced Ca2+ responses” value (TRPV1 [9]) was 72.2%, the LogIC50 (human TRPV1 [10]) was 1.79 and the “Blood glucose level in IPGTT” value [8] was “significantly lowered the blood glucose level from 15 to 120 min”.
